{
  "source": "paper PMC6813295",
  "about": "“A tumour-selective cascade activatable self-detained system for drug delivery and cancer imaging” (Nature Communications, 2019)",
  "key": {"[1]": {"experiment": "Self-assembly behaviour in water (CD, TEM)", "assay_type": "physicochemical", "experimental": "Fig. 2 The structure conformations and self-assembly properties of molecule 1 in aqueous solution. a Illustration of the self-assembly strategy of molecule 1. b CD spectra of molecule 1 and molecule 4 in deionized water at a concentration of 1 μM. c FTIR spectra of molecule 1 in a monomeric state and molecule 4 in a fibrous assembled state. The arrows identify the typical characteristic peaks of the antiparallel β-sheet structure. d TEM image of self-assembled β-sheet nanofibrils of molecule 1 after treatment with caspase-3 (substrate-to-enzyme ratio of 1 μM/U) in HEPES buffer (50 mM, pH 7.4) for 2 h. The manual measurement of the nanofibril diameter is shown in the zoomed image, and the computational simulation result for the length of molecule 4 is inserted. e WAXS and computational simulation results of the β-sheet self-assemblies (molecule 4) identified the β-sheet and laminate spacing of the structures. f The concentration-dependent CD spectra of molecule 4 in the concentration range of 0.5–10 μM. g Time-dependent TEM images of molecule 4 from 10 min to 12 h for monitoring the growth process of the nanofibrous structures. h Temperature-dependent CD intensity changes at 220 nm of molecules 1 and 4 with a heating rate of 1 °C/min and an equilibrium period of 30 s to reveal the self-assembly mechanisms. Scale bar: 100 nm […]\nmicroscopy (UltraVIEW VoX). […]"}, "H460 tumour-bearing mice": {"tested_on": "H460 tumour-bearing mice", "experiment": "Tumour penetration, distance from CD31-stained vessels in frozen tumour sections", "assay_type": "in vivo, mouse", "experimental": "Fig. 5 Tumour penetrations of TCASS. a 3D reconstruction PA images of tumour-bearing mice injected with molecule 1, SiO2 nanoparticles (SiO2 NPs) and liposome labelled by Cy. The degrees of penetration into the tumour were calculated. To better illustrate the penetration extent of molecule 1, SiO2 nanoparticles (SiO2 NPs) and liposome labelled by Cy, the tumour tissue was divided into five parts with identical radius intervals, which indicated the trend from the tumour edge to the interior (the red dashed circles show the tumour margin, and the grey dashed circles show the normalized distance from the tumour edge). b Quantification of the PA signal intensity. The PA intensity in the intratumoural distribution area between neighbouring polygons was normalized by the corresponding area. Data are presented as the mean ± s.d. (n = 3). ***p < 0.001, p values were performed with one-way ANOVA followed by post hoc Tukey’s test for the indicated comparison. c Frozen sections of tumour removed after treatment with molecule 1, SiO2 NPs and liposome labelled by Cy for 12 h. The tumour cell nucleus and vessels were stained with DAPI and FITC-tagged CD31 antibody, respectively. d Quantification of the penetrative distance of molecule 1, SiO2 NPs and liposome labelled by Cy from the tumour vessels. Data are presented as the mean ± s.d. (n = 8). ***p < 0.001, p values were performed with one-way ANOVA followed by post hoc Tukey’s test for the indicated comparison. Scale bar: a 2 mm; c 50 μm\nAll animal experiments were performed as previously described. H460 cells were also subcutaneously implanted on the right flank of xenografts mice. After the tumour had developed, Molecule 1 (14 mg/kg, n = 3), liposome and SiO2 nanoparticles labelled by Cy (the same molar amount of Cy, n = 3) dissolved into PBS was intravenously injected through tail vein of mice. The control group was PBS at the same conditions. […] In order to quantify the PA signal intensity, the intratumoral distribution area was normalized with the tumour regions."}},
  "note": "Where a SMILES comes first, the peptide text is derived from it. The star is where a group is joined. X1 = CC1(C)C(=CC=C2CCCC(C=CC3=[N+](CCCCCC(=O)O)c4ccccc4C3(C)C)=C2*)N(CCCCCC(=O)O)c2ccccc21",
  "data": [
    {"smiles": "CC[C@H](C)[C@H](NC(=O)[C@@H]1CCCN1C(=O)[C@@H](NC(=O)[C@H](C)N)C(C)C)C(=O)N[C@@H](C)C(=O)N[C@@H](CCC(N)=O)C(=O)N[C@@H](CCCCN)C(=O)N[C@@H](CC(=O)O)C(=O)N[C@@H](CCC(=O)O)C(=O)N[C@H](C(=O)N[C@@H](CC(=O)O)C(=O)N[C@@H](CCCCN)C(=O)N[C@@H](CC(C)C)C(=O)N[C@H](C(=O)N[C@@H](Cc1ccccc1)C(=O)N[C@@H](Cc1ccccc1)C(=O)N[C@@H](C)C(=O)N[C@@H](CCC(=O)O)C(=O)N[C@@H](CSC1=C(C=CC2=[N+](CCCCCC(=O)O)c3ccccc3C2(C)C)CCCC1=CC=C1N(CCCCCC(=O)O)c2ccccc2C1(C)C)C(=O)NCC(=O)O)C(C)C)C(C)C", "note": "[molecule 1] (H-AVPIAQKDEVDKLVFFAEC(X1)G-OH)", "values": [
      {"measurement": "secondary structure by CD", "setting": "[1]; 1 μM in deionized water", "result": "random coiled conformation"},
      {"measurement": "state in water (dissolved or fibrous structures; TEM, CD)", "setting": "[1]; deionized water, same conditions, TEM 50 μM, from 1% HFIP, 24 h", "result": "well-dissolved"},
      {"measurement": "penetrative distance of signal from the tumour blood vessels", "setting": "H460 tumour-bearing mice; 12 h post IV injection, 14 mg/kg or same molar amount of Cy, frozen sections, mean ± s.d. n = 8", "result": "approximately 67.4 ± 10.3 μm"},
      {"measurement": "penetration distance of molecule 1 relative to SiO2 nanoparticles", "setting": "H460 tumour-bearing mice; 12 h post injection", "result": "~10", "unit": "times"},
      {"measurement": "penetration distance of molecule 1 relative to liposomes", "setting": "H460 tumour-bearing mice; 12 h post injection", "result": "approximately 13 times"}
    ]}
  ]
}
